Test results reported in patent publication US9556110B2, “Aminoalcohol lipidoids and uses thereof” (Massachusetts Institute of Technology, priority 2008, dated 2017).

System: Factor VII
Assay: In vivo Factor VII knockdown after injection of anti-Factor VII siRNA lipidoid formulations
Design: species or system C57BL/6 mice
Conditions: mice, 0.01 mg/kg siRNA dosing
Experimental: C57BL/6 mice (Charles River Labs) received either saline or siRNA in lipidoid formulations via tail vein injection at a volume of 0.01 ml/g. […] At 48 hours after administration, animals were anesthetized by isofluorane inhalation and blood was collected into serum separator tubes by retroorbital bleed. Serum levels of Factor VII protein were determined in samples using a chromogenic assay (Biophen FVII, Aniara Corporation) according to the manufacturer's protocols. A standard curve was generated using serum collected from saline-treated animals. Exemplary results are depicted in FIG. 7.
To test siRNA delivery efficacy in vivo, a mouse model for liver delivery was used. […] Once produced by hepatocytes, Factor VII is released into the bloodstream, and a baseline level of expression can be determined by simple blood draw and quantification of protein levels by colorimetric assay. By delivering anti-Factor VII siRNA to hepatocytes, knockdown of this model protein can be achieved and a percentage of silencing can be determined by comparison to an untreated control. […]
Following the initial in vivo screening experiments, two compounds were used to conduct a dose response. […] In addition to Factor VII measurement, the change in mouse body weight is recorded and a loss in weight is generally considered formulation induced toxicity (See FIG. 13b and FIG. 14b). […]

CCCCCCCCCC[C@H](O)CN(CCN1CCN(CCN(C[C@@H](O)CCCCCCCCCC)C[C@@H](O)CCCCCCCCCC)CC1)CCN(C[C@@H](O)CCCCCCCCCC)C[C@@H](O)CCCCCCCCCC [(S)—C12-200]
reduction of systemic Factor VII (preliminary): approximately 50%

CCCCCCCCCCC(O)CN(CCN1CCN(CCN(CC(O)CCCCCCCCCC)CC(O)CCCCCCCCCC)CC1)CCN(CC(O)CCCCCCCCCC)CC(O)CCCCCCCCCC (racemic) [C12-200]
difference of Factor VII reduction between racemic lipidoid and R or S forms: insignificant
